Assay results taken from US8969004B2, “Detection of immobilized nucleic acid” (Life Technologies Corporation, priority 2004, dated 2015).
Entries after “also recorded” stand apart in the source; their conditions may differ. Like-named read-outs stand apart in the source and are kept apart here.

Experiments:
[1] = system: Salmonella typhimurium histidine auxotrophs TA97a, TA98, TA100, TA102, TA1535, TA1537 and TA1538; assay: Salmonella/Mammalian Microsomal Reverse Mutation Assay (Ames Test); type: cell-based; settings: for increase in revertants compared to vehicle control (DMSO), TA97a: tester strain TA97a; for increase in revertants compared to vehicle control (DMSO), TA98: tester strain TA98; for increase in revertants compared to vehicle control (DMSO), TA100: tester strain TA100; for increase in revertants compared to vehicle control (DMSO), TA102: tester strain TA102; for increase in revertants compared to vehicle control (DMSO), TA1535: tester strain TA1535; for increase in revertants compared to vehicle control (DMSO), TA1537: tester strain TA1537; for increase in revertants compared to vehicle control (DMSO), TA1538: tester strain TA1538; for Ames test mutagenicity classification, early screens: early screens of nucleic acid complexing compounds
Protocol: The Ames assay was performed using the method described by Ames (Ames et al Mutation Research 31 (1975) 347-364; Levin et al. PNAS 79 (1982) 7445-7449; Maron and Ames, Mutation Research 113 (1983) 173-215). Tester stains used were Salmonella typhimurium histidine auxotrophs TA97a, TA98, TA100, TA102, TA1535, TA1537 and TA1538. […] The test compounds, test vehicle and S9 (when appropriate) were combined with molten agar and then overlaid over a minimal agar plate. Following incubation at 37° C., revertant colonies were counted. When S9 was not used, 100 μl of tester strain and 50 μl of control or test compound were added to 2.5 ml of selective top agar. When S9 was used, 500 μl of S9 mix, 100 μl of tester strain and 50 μl of control or test compound was added to 2.0 ml of selective top agar. The top agar was then overlaid onto the surface of 25 ml of minimal bottom agar contained in a 15×100 mm Petri dish. The inverted plates were incubated for 52±4 hr at 37±2° C.
The number of revertants was counted and the test compounds were either considered non-mutagenic or mutagenic. The criteria for determining if a test compound was mutagenic was based on a 2-fold increase in mean revertants per plate for at least one tester strain (TA97a, TA98, TA100 and TA102) over the mean revertants per plate of the appropriate vehicle control. For tester strains TA1535, TA1537 and TA 1538 a positive mutant was identified by a 3-fold increase in mean revertants per plate compared to the appropriate vehicle control. In addition, the increase in the mean number of revertants per plate needed to be accompanied by a dose response to increasing concentrations of the test compound. […] Thiazole orange was also considered mutagenic for two of the tester strains in the absence of S9. Thus, compared to ethidium bromide, thiazole orange is 3-4 times less mutagenic and Compound 1 is 4-5 times less mutagenic. Ethidium bromide and Sybr Green I had previously been tested wherein Sybr Green I was considered a weak mutagen (Singer et al. Mutation Research 439 (1999) 37-47).

[2] = system: cultured human lymphocytes; assay: Screening Assay for Chromosomal Aberrations in Cultured Human Peripheral Blood Mononuclear Cells (PBMC); type: cell-based
Protocol: Human venous blood from healthy adult volunteers was drawn in heparinized vacutainers. The whole blood cultures were initiated in 15 ml centrifuge tubes by adding approximately 0.3 ml of fresh heparinized blood into a sufficient volume of culture medium, to that the final volume was 5 mL in the assay with and without metabolic activation after the addition of the test compound. The culture medium was RPMI 1640 supplemented with approximately 20% heat-inactivated fetal bovine serum (FBS), penicillin (100 units/mL), streptomycin (100 μg/mL), L-glutamine (2 mM) and 2% phytohemagglutinin M (PHA-M). The cultures were incubated with loose caps at 37° C.±2° C. in a humidified chamber of approximately 5% CO2 in air.
The in vitro metabolic activation system consisted of a rat liver post-mitochondrial fraction (S9) and an energy-producing system (NADPH plus isocitric acid) (Maron and Ames, 113 Mutation Research (1983) 173-215).
Two days after culture initiation, the cultures were treated with the test compounds. […]
At the end of the incubation period the cultures were centrifuged, the supernatant discarded, and the cells swollen with 75 mM KCl, fixed in methanol:glacial acetic acid (3:1 v/v), dropped onto glass slides and air dried. The slides were stained with 5% Giemsa and air dried and then analyzed for mitotox index, chromosomal aberrations including polyploidy and endoreduplication.

[3] = system: Salmonella typhimurium histidine auxotrophs TA97a, TA98, TA100, TA102, TA1535, TA1537 and TA1538; settings: cited from earlier work
[4] = system: Syrian hamster embryo (SHE) cells; assay: In Vitro Transformation of Syrian Hamster Embryo (SHE) Cells by 7-Day Exposure Screening Assay
DNA in a 1% agarose gel = assay: Detection of DNA separated and immobilized in an agarose gel; settings: for ability to detect nucleic acid immobilized in a gel by electrophoresis: excited with UV light, about 300 nm
[5] = system: Syrian hamster embryo (SHE) cells; settings: for RPE (relative plating efficiency) / MT Frequency (%): Syrian hamster, 7 day
[6] = Hazardous Waste Screening Test (toxicity to aquatic life); type: in vivo, Pimephakes promelas; settings: fathead minnow (Pimephakes promelas), in vivo, other: exposure in tank water containing the compound; fathead minnows; 96 hour exposure
Protocol: (§1) Compound 1 was tested to determine whether or not the compound was hazardous or toxic to aquatic life. Ten fathead minnows (Pimephakes promelas) were placed each in a 8 liter tank containing vehicle control and a concentration of Compound 1 at 250 mg/L, 500 mg/L and 750 mg/L. After a 96 hour exposure period the number of viable minnows were counted. The survival rate of the minnows for the control and Compound 1 was 100%. Thus, compound 1 has a LC50 value […], which is classified as not hazardous under CCR Title 22 acute toxicity to aquatic life.

[7] = system: fathead minnows (Pimephakes promelas); assay: as above; type: in vivo
Protocol: as §1

[8] = system: MRC5 human lung fibroblast cells; assay: Cell Permeability on Live Eukaryotic Cells; type: cell-based; settings: 0.5, 1.0, 5.0 and 10.0 μM; 5 minutes at 37° C.; fluorescence microscopy
Protocol: MRC5 human lung fibroblast cells were harvested and grown in complete culture media (DMEM+10% FBS) for one day after seeding coverslips. Cells were then removed from complete media and placed in Hank's balanced salt solution w/sodium bicarbonate (HBSS) supplemented with 5 mM HEPES, 100 uM L-glutamine and 100 uM succinate containing varying concentrations of Compound 1. Concentrations tested included 0.5, 1.0, 5.0 and 10.0 μM. Cells were incubated for 5 minutes at 37° C./[…] Cells were washed 3×30 seconds in HBSS and mounted on microscope slides in HBSS and sealed with paraffin. After mounting, slides were examined on a Nikon Eclipse 800 upright fluorescent microscope and imaged with standard FITC and TRITC filter sets, a Princeton Instrument MicroMax cooled CCD camera, and Universal Imaging MetaMorph imaging software. […] Signal associated with Compound 1 is detectable with both FITC and TRITC filter sets with greater signal intensity using the FITC set. Regardless of concentration, nucleolar labeling seems to be the most prominent and appears to become slightly more prominent at lower concentrations. Off cell background was minimal in all cases.

[9] = NPDES testing for compliance with the Clean Water Act
Protocol: The testes were performed according to EPA protocols cited in Table 9.

[10] = in the presence of S9 (rat liver extract)

| SMILES | Ames test mutagenicity classification [1, 10] | increase in revertants compared to vehicle control (DMSO), TA97a [1] | increase in revertants compared to vehicle control (DMSO), TA98 [1] | increase in revertants compared to vehicle control (DMSO), TA100 [1] | increase in revertants compared to vehicle control (DMSO), TA102 [1] | increase in revertants compared to vehicle control (DMSO), TA1535 [1] | increase in revertants compared to vehicle control (DMSO), TA1537 [1] | increase in revertants compared to vehicle control (DMSO), TA1538 [1] | Ames test mutagenicity classification, early screens [1] | ability to detect nucleic acid immobilized in a gel by electrophoresis (DNA in a 1% agarose gel) | RPE (relative plating efficiency) ([5]; 0.04 μg/mL) [%] | RPE (relative plating efficiency) ([5]; 0.26 μg/mL) [%] | other results |
| --- | --- | --- | --- | --- | --- | --- | --- | --- | --- | --- | --- | --- | --- |
| CC[n+]1c(-c2ccccc2)c2cc(N)ccc2c2ccc(N)cc21 [Ethidium bromide, ethidium bromide] | mutagenic | 4.4 | 68.0 | 1.6 | 2.0 | 1.4 | 15 | 80 | – | – | – | – | Chromosomal Aberrations Test, cultured human peripheral blood lymphocytes: result ([2]; with and without S9 metabolic activation): negative; Ames test mutagenicity classification (previously tested, literature) ([3]; McCann et al. 1975, Singer et al. 1999): mutagenic; RPE (relative plating efficiency) ([4]; 0.200 μg/mL): 85%; RPE (relative plating efficiency) ([4]; 0.400 μg/mL): 66%; RPE (relative plating efficiency) ([4]; 0.800 μg/mL): 28%; Transformation Test, Syrian hamster embryo (SHE) cells: result ([4]; morphological transformation vs vehicle control): positive |
| CCCN(CCCN(C)C)c1cc(/C=C2/Sc3ccccc3N2C)c2ccccc2[n+]1-c1ccccc1 [Sybr Green I] | – | – | – | – | – | – | – | – | – | – | – | – | Ames test mutagenicity classification (previously tested, literature) [3]: weak mutagen |
| CN1C=C/C(=C\c2sc3ccccc3[n+]2C)c2ccccc21 [Thiazole orange, thiazole orange] | mutagenic | 6.9 | 6.4 | 2.2 | 4.7 | 1.5 | 17.4 | 7.8 | either mildly mutagenic or non-mutagenic | able to detect nucleic acid | 97 | 25 | Ames test mutagenicity classification ([1]; in the absence of S9, two of the tester strains): mutagenic; Chromosomal Aberrations Test, cultured human peripheral blood lymphocytes: result [2]: negative; Transformation Test, Syrian hamster embryo (SHE) cells: result [5]: positive; RPE (relative plating efficiency) ([5]; 0.15 μg/mL): 52% |
| CCC[n+]1ccc(/C=C2\Sc3ccccc3N2C)c2ccccc21 [Compound 1] | mild or non-mutagenic; also recorded: Weakly positive | 3.3 | 3.0 | 1.7 | 3.7 | 1.8 | 1.8 | 3.7 | either mildly mutagenic or non-mutagenic | able to detect nucleic acid | 97 | 25 | times less mutagenic compared to ethidium bromide ([1]; Ames test): 4-5 times; LC50 at 96 h [6]: > 500 µg/mL; survival rate of the minnows ([7]; 250 mg/L, 500 mg/L and 750 mg/L, 96 hour exposure): 100%; hazard classification, acute toxicity to aquatic life ([7]; CCR Title 22): not hazardous; also recorded: non-hazardous to aquatic life; cell permeability in live cells [8]: cell permeable; compliance with the Clean Water Act and NPDES regulations [9]: complies; sensitivity of nucleic acid detection in a gel (DNA in a 1% agarose gel; 1% agarose gel, post-stained 30, 60 and 90 minutes, 1 μM in TBE, 62.5 ng to 30.52 pg DNA): at least as sensitive as ethidium bromide; MT Frequency (%) ([5]; 0.04 μg/mL): 0.731%; MT Frequency (%) ([5]; 0.05 μg/mL): 0.442%; RPE (relative plating efficiency) ([5]; 0.05 μg/mL): 120%; MT Frequency (%) ([5]; 0.2 μg/mL): 0.313%; RPE (relative plating efficiency) ([5]; 0.2 μg/mL): 85%; MT Frequency (%) ([5]; 0.26 μg/mL): 0.294%; MT Frequency (%) ([5]; 0.3 μg/mL): 0.144%; RPE (relative plating efficiency) ([5]; 0.3 μg/mL): 59%; MT Frequency (%) ([5]; 0.4 μg/mL): 1.304%; RPE (relative plating efficiency) ([5]; 0.4 μg/mL): 66%; MT Frequency (%) ([5]; 0.8 μg/mL): 0.635%; RPE (relative plating efficiency) ([5]; 0.8 μg/mL): 28% |
